Results taken from patent publication US20250012803A1, “METHODS FOR ASSESSING AN IMMUNE RESPONSE AND PREDICTING CANCER RECURRENCE AND ASSESSMENT OF CURRENT AND PRIOR CANCER STATUS” (priority 2021, published 2025).
Several values for one entry are separate records, joined by “and”; a condition that tells them apart may be missing. Equal entries are not always repeated.

Assays:
Type in all cases: in vivo, human
[1] = test system: breast cancer patients (DTH immune response to GP2); assay: Delayed type hypersensitivity (DTH) skin test to GP2
Experimental: (§1) Methods: Consented patients were randomized and scheduled to receive GLSI-100 (500 microgram (mcg) GP2: 125 mcg GM-CSF) or control (GM-CSF only) via 6 intradermal injections every 3-4 weeks as part of the Primary Immunization Series (PIS) for the first 6 months and 4 booster intradermal injections every 6 months thereafter. […] DTH skin tests were assessed at baseline and after the 6th dose with the orthogonal mean of each skin reaction measured 48-72 hours after injection using the sensitive ballpoint-pen method.
(§2) A DTH reaction was used to assess in vivo immune responses in patients (n=150) prior to exposure to study medication and after 6 months of the first dose. The DTH orthogonal mean was measured 48-72 hours after injection using the sensitive ballpoint-pen method. DTH reactions after the PIS were greater compared to baseline DTH reactions.
as §2, with “method. GP2” for “method.”, “response increases in patients” for “reactions”, “treatment with GLSI-100.” for “the PIS were greater compared to baseline DTH reactions.”
Injection site reactions (ISR) were measured 48-72 hours after injection. Delayed-type hypersensitivity (DTH) to GP2 was performed at baseline and after 6 months of treatment. For the DTH test, 0.5 mL consisting of 100 mcg of GP2 reconstituted in bacteriostatic saline for injection was placed intradermally. The DTH reaction was measured 48-72 hours after injection.
The orthogonal mean of the largest diameter of the injection site was measured 48-72 hours after injection. A DTH reaction was used to assess in vivo immune responses in patients prior to exposure to study medication and after 6 months of the first dose. The DTH orthogonal mean was measured 48-72 hours after DTH placement using the sensitive ballpoint-pen method. DTH reactions increase after the PIS compared to baseline DTH reactions.
GP2 DTH skin tests were placed at baseline and after the 6th dose. After 48-72 hours, the largest perpendicular diameters of induration were measured and the orthogonal mean was calculated. Induration of over 5 mm was considered a positive response. The relationship between prognostic factors such as demographic and disease characteristics and the baseline DTH response were investigated by logistic regression.

[2] = test system: node-positive and high-risk node-negative breast cancer patients with tumors expressing any degree of HER2; assay: Phase IIb trial (NCT00524277): disease-free survival / breast cancer recurrence
Experimental: Background for Examples 1-5: Delayed type hypersensitivity (DTH) skin tests in the randomized, active-controlled, single-blinded, multicenter Phase IIb trial investigating GLSI-100 (GP2+GM-CSF) administered in the adjuvant setting to node-positive and high-risk node-negative breast cancer patients with tumors expressing any degree of HER2 (immuno-histochemistry [IHC] 1-3+) (NCT00524277) were analyzed. The trial enrolled HLA-A*02 patients randomized to receive GLSI-100 versus GM-CSF alone. The trial's primary objective was to determine if treatment with GLSI-100, a HER2-derived peptide, reduces recurrence rates.
as §1
Results: The study enrolled 180 patients across 16 clinical sites with both HER2 3+ positive and low HER2 expressors (1-2+). […] Injection site reactions were common, occurring in almost 100% of patients treated with either GLSI-100 or GM-CSF alone. […]

[3] = test system: breast cancer patients (injection site); assay: Injection site reaction (ISR) measurement, orthogonal mean
breast cancer patients = assay: Phase IIb trial safety / tolerability; settings: patients treated with either GLSI-100 or GM-CSF alone
Experimental: as §1
Results: The study enrolled 180 patients across 16 clinical sites with both HER2 3+ positive and low HER2 expressors (1-2+). […] Injection site reactions were common, occurring in almost 100% of patients treated with either GLSI-100 or GM-CSF alone. Previous publications have reported the increase in DTH response reported among patients after treatment with GLSI-100.

“Ile Ile Ser Ala Val Val Gly Ile Leu (IISAVVGIL) [GP2]” was tested, and the “patients reacting to GP2 at baseline (positive DTH, induration of 5 mm or greater)” value ([1]; baseline, prior to any GP2 treatment, all patients (33/145)) was 22.8%, the “patients with positive baseline DTH response to GP2 in subgroup with later breast cancer recurrence” value ([1]; baseline, recurrence subgroup (8/22)) was 36.4% and the “6 Month DTH (mm)” value ([1]; individual recurring patients, after 6 months of treatment) was 24 mm and 20 mm and 16 mm and 15 mm and 3 mm and 0 mm and 25 mm. For the same substance, the “Baseline DTH (mm)” value ([1]; individual recurring patients, prior to exposure to study medication) was 9 mm and 8 mm and 7 mm and 0 mm (8×) and 43 mm and 13 mm and the “Time to Recurrence” value ([2]; individual patients who experienced breast cancer recurrence) was 28 days and 99 days and 66 days and 820 days and 265 days and 498 days and 507 days and 366 days and 590 days and 141 days and 79 days and 76 days and 1295 days.

“granulocyte-macrophage colony-stimulating factor [GM-CSF]” was tested, and the “median orthogonal mean induration of injection site reaction” value ([3]; after a single dose, p=0.0036) was 7.8 mm, the “average difference in injection site reaction, HER2 3+ vs HER2 1-2+ control patients” value ([3]; over all 10 doses, HER2 3+ smaller) was 43.1 mm and the “DTH reaction after the Primary Immunization Series (orthogonal mean)” value ([1]; after 6 months, measured 48-72 hours after injection, p=0.009) was 0.0 mm. For the same substance, the “patients with injection site reactions” value (breast cancer patients) was ~100% and the “Kaplan-Meier estimated 5-year disease-free survival (DFS) rate” value ([2]; HER2 3+ patients followed 6 months or more and disease-free over first 6 months, 5 years follow-up, p=0.0338) was 89.4%.
